Measured values taken from patent publication US20150315188A1, “COMPOUNDS AND METHODS FOR TREATMENT OF HYPERTENSION” (MEDIVATION TECHNOLOGIES, INC., priority 2012, published 2015).

Columns and labels:
[1] = biological target: T1, rat adrenergic α1B receptor (Rattus norvegicus, UniProt P15823); test: Radioligand binding, adrenergic α1B (Protocol Group A); conditions: 0.1 μM compound, [3H]Prazosin; for inhibition at 0.1 µM: read-out: percent inhibition of specific binding, Adrenergic α1B; for percent inhibition of specific binding, Adrenergic α1B: 0.1 µM
T1 construct: rat adrenergic α1B receptor obtained from Wistar Rat liver; from tissue; host or cells: Wistar rat liver
T1 sequence (P15823 1-515): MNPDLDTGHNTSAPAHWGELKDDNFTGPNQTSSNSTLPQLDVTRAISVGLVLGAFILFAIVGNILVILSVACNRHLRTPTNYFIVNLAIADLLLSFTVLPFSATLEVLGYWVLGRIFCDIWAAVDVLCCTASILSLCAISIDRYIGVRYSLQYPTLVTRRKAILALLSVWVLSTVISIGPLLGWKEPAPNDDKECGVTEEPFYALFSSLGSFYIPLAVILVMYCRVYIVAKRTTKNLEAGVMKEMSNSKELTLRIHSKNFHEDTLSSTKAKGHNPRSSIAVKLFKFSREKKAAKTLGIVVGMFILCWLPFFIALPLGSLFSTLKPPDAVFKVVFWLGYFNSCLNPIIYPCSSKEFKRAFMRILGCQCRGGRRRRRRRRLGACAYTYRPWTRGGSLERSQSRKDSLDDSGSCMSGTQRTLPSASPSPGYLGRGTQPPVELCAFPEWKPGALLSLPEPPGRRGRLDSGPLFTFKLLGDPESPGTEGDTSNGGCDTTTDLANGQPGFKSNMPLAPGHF
Experimental: To evaluate in radioligand binding assays the activity of compounds of the invention, rat adrenergic α1B receptor obtained from Wistar Rat liver (Garcia-S'ainz, J. et al, Biochem. Biophys. Res. Commun. 186:760, 1992; Michel, A. et al, Br. J. Pharmacol. 98:883, 1989) in a modified Tris-HCl buffer (50 mM Tris-HCl buffer, pH 7.4, 0.5 mM EDTA) was used. Compounds of the invention were incubated with 0.25 nM [^3H]Prazosin for 60 min at 25° C. Non-specific binding was estimated in the presence of 10 μM phentolamine. Receptor proteins were filtered and washed, the filters were then counted to determine [^3H]Prazosin specifically bound. Compounds were screened at 1 μM or lower, using 1% DMSO as vehicle. Compounds of the invention were tested in this biochemical assay and percent inhibition of specific binding was determined. Biochemical assay results are presented as the percent inhibition of specific binding in Table B1a.

[2] = biological target: T2, Human adrenergic α2B receptor (Homo sapiens, UniProt P18089); test: Radioligand binding, adrenergic α2B (Protocol Group A); parameters: expressed in transfected cells; host or cells: CHO-K1; conditions: 0.03 μM compound, [3H]Rauwolscine; for inhibition at 0.03 µM: read-out: percent inhibition of specific binding, Adrenergic α2B; for percent inhibition of specific binding, Adrenergic α2B: 0.03 µM
T2 sequence (P18089 1-450): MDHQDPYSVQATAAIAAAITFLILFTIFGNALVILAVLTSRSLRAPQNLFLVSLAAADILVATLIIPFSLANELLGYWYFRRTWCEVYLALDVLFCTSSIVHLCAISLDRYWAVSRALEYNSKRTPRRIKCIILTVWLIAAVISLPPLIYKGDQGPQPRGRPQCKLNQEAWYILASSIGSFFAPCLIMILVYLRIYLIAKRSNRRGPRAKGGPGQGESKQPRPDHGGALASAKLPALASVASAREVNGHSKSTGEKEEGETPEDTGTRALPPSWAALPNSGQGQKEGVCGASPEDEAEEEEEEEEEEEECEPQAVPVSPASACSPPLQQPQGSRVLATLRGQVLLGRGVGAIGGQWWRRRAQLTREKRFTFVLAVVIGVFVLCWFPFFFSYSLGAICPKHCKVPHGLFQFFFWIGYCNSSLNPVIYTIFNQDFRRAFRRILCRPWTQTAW
Experimental: To evaluate in radioligand binding assays the activity of compounds of the invention, human recombinant adrenergic α2B receptor expressed in Chinese hamster ovary (CHO) K1 cells (Uhlen, S. et al, Eur. J. Pharmacol. 343(1):93, 1998) in a modified Tris-HCl buffer (50 mM Tris-HCl, pH 7.4, 12.5 mM MgCl2, 1 mM EDTA, 0.2% BSA) was used. Compounds of the invention were incubated with 2.5 nM [3H]Rauwolscine for 60 min at 25° C. Non-specific binding was estimated in the presence of 10 μM Prazosin. Receptor proteins were filtered and washed, the filters were then counted to determine [3H]Rauwolscine specifically bound. Compounds were screened at 1 μM or lower, using 1% DMSO as vehicle. Compounds of the invention were tested in this biochemical assay and percent inhibition of specific binding was determined. Biochemical assay results are presented as the percent inhibition of specific binding in Table B1a.

[3] = biological target: T3, Human adrenergic α2A receptor (Homo sapiens, UniProt P08913); test: Radioligand binding, adrenergic α2A (Protocol Group A); parameters: expressed in transfected cells; host or cells: insect Sf9 cells; conditions: 0.1 μM compound; for inhibition at 0.1 µM: [3H]MK-912, read-out: percent inhibition of specific binding, Adrenergic α2A; for percent inhibition of specific binding, Adrenergic α2A: [3H]MK-912, 0.1 µM
T3 sequence (P08913 1-465): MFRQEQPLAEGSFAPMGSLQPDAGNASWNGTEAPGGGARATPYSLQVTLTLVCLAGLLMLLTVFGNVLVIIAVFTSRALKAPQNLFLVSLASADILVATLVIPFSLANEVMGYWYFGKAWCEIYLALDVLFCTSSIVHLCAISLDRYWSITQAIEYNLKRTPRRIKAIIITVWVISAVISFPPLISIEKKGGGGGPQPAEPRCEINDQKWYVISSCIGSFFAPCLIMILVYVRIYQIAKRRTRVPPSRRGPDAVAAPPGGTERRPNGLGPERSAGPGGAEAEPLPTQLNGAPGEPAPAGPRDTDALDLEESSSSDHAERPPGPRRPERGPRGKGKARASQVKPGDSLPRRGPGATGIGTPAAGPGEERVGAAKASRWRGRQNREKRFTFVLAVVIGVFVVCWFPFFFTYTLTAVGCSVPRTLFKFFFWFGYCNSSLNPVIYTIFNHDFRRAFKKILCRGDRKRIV
Experimental: To evaluate in radioligand binding assays the activity of compounds of the invention, human recombinant adrenergic α2A receptor expressed in insect Sf9 cells (Uhlen, S. et al, J. Pharmacol. Exp. Ther. 271:1558, 1994) in a modified Tris-HCl buffer (50 mM Tris-HCl, pH 7.4, 12.5 mM MgCl2, 2 mM EDTA) was used. Compounds of invention were incubated with 1 nM [^3H]MK-912 for 60 min at 25° C. MK912 is (2S-trans)-1,3,4,5′,6,6′,7,12b-octahydro-1′,3′-dimethyl-spiro[2H-benzofuro[2,3-a]quinolizine-2,4′(1′H)-pyrimidin]-2′(3′H)-one hydrochloride. Non-specific binding was estimated in the presence of 10 μM WB-4101 (2-(2,6-Dimethoxyphenoxyethyl)aminomethyl-1,4-benzodioxane hydrochloride). Receptor proteins were filtered and washed, the filters were then counted to determine [^3H]MK-912 specifically bound. Compounds were screened at 1 μM or lower, using 1% DMSO as vehicle. Compounds of the invention were tested in this biochemical assay and percent inhibition of specific binding was determined. Biochemical assay results are presented as the percent inhibition of specific binding in Table B1a.

| SMILES | inhibition at 0.1 µM [1] | inhibition at 0.03 µM [2] | inhibition at 0.1 µM [3] | percent inhibition of specific binding, Adrenergic α1B [1] | percent inhibition of specific binding, Adrenergic α2B [2] | percent inhibition of specific binding, Adrenergic α2A [3] |
| --- | --- | --- | --- | --- | --- | --- |
| Cc1ccc2c(c1)c1c(n2C(CC(C)(C)C)C(=O)c2ccncc2)CCN(C)C1 (stereo not drawn) [compound 9, 2-(2,8-dimethyl-3,4-dihydro-1H-pyrido[4,3-b]indol-5 (2H)-yl)-4,4-dimethyl-1-(pyridin-4-yl)pentan-1-one] | 77% | 107% | 85% | – | – | – |
| Cc1ccc2c(c1)c1c(n2CC(OC(=O)N2CCCC2)c2ccncc2)CCN(C)C1 (single isomer, unassigned) [4a] | – | – | 21% | 11% | 39% | – |
| Cc1ccc2c(c1)c1c(n2CC(OC(=O)N2CCN(C)CC2)c2ccncc2)CCN(C)C1 (stereo not drawn) [compound 5, 2-(2,8-dimethyl-3,4-dihydro-1H-pyrido[4,3-b]indol-5 (2H)-yl)-1-(pyridin-4-yl)ethyl 4-methylpiperazine-1-carboxylate] | 5% | 13% | 10% | – | – | – |
| c1cncc(CCn2c3c(c4ccccc42)C2CCCN2CC3)c1 (single isomer, unassigned) [2b] | – | – | – | 4% | 1% | 13% |
| Cc1ccc2c(c1)c1c(n2CC(C)(O)c2ccc(F)nc2)CCN2CCCC12 (stereo not drawn) [6b] | 61% | 93% | 29% | – | – | – |
| Cc1ccc2c(c1)c1c(n2CCc2cncc(S(C)(=O)=O)c2)CCN(C)C1 [Compound No. 1, 2,8-dimethyl-5-(2-(5-(methylsulfonyl)pyridin-3-yl)ethyl)-2,3,4,5-tetrahydro-1H-pyrido[4,3-b]indole] | 18% | 64% | 3% | – | – | – |
| c1cncc(CCn2c3c(c4ccccc42)C2CCCN2CC3)c1 (single isomer, unassigned) [2a] | – | – | – | 28% | 102% | 31% |
| Cc1ccc(C(F)Cn2c3c(c4cccnc42)C2CCCN2CC3)cn1 (single isomer, unassigned) [10a] | – | – | – | −3% | 4% | 0% |
| Cc1ccc2c(c1)c1c(n2CC(OC(=O)N2CCCC2)c2ccncc2)CCN(C)C1 (stereo not drawn) [compound 4, 2-(2,8-dimethyl-3,4-dihydro-1H-pyrido[4,3-b]indol-5(2H)-yl)-1-(pyridin-4-yl)ethyl pyrrolidine-1-carboxylate] | – | – | – | 27% | 78% | 33% |
| Cc1ccc(C(F)Cn2c3c(c4cccnc42)C2CCCN2CC3)cn1 (single isomer, unassigned) [10b] | – | – | – | −5% | 16% | −1% |
| Cc1ccc2c(c1)c1c(n2CC(OCCCC(=O)O)c2ccncc2)CCN(C)C1 (stereo not drawn) [compound 3, 4-(2-(2,8-dimethyl-3,4-dihydro-1H-pyrido[4,3-b]indol-5 (2H)-yl)-1-(pyridin-4-yl)ethoxy)butanoic acid] | -5% | 7% | 5% | – | – | – |
| Cc1ccc2c(c1)c1c(n2/C=C/c2ccncc2)CCN2CCCC12 (stereo not drawn) [Compound No. 7, (E)-10-methyl-7-(2-(pyridin-4-yl)vinyl)-2,3,5,6,7,11c-hexahydro-1H-indolizino[7,8-b]indole] | 99% | 108% | 93% | – | – | – |
| Cc1ccc2c(c1)c1c(n2CC(OC(N)=O)c2ccncc2)CCN(C)C1 (stereo not drawn) [compound 8, 2-(2,8-dimethyl-3,4-dihydro-1H-pyrido[4,3-b]indol-5 (2H)-yl)-1-(pyridin-4-yl)ethyl carbamate] | 1% | 42% | 11% | – | – | – |
